Measured values taken from patent publication US8969294B2 (Istituto di Recerche di Biologia Molecolare P. Angeletti …, priority 2008, dated 2015).
pEC50: −log10 of the molar value. Values belong to the compound of their own block, whether it stands above or below them. Square brackets hold non-standard residues; d marks the D form. Side chains are listed from the residue outwards. Peptide text beside a SMILES is read from it. * marks the point of attachment. Palmitoyl = CCCCCCCCCCCCCCCC(=O)*; Aib = CC(C)(N)C(=O)O

Target: glucagon receptor (Homo sapiens, UniProt P47871)
Assay: Functional assay, cAMP synthesis: luciferase reporter in HEK293 cells co-transfected with glucagon receptor
[1] = EC50 at Glucagon Receptor (20% human plasma), Table 28, 20% human plasma
[2] = EC50 at Glucagon Receptor, Table 28
[3] = Glucagon Receptor EC50, Table 20
[4] = EC50 at the Glucagon receptor, Table 21
[5] = EC50, Glucagon Receptor, Table 13
[6] = EC50 at Glucagon Receptor, Table 17

glucagon receptor, sequence (P47871 26-477): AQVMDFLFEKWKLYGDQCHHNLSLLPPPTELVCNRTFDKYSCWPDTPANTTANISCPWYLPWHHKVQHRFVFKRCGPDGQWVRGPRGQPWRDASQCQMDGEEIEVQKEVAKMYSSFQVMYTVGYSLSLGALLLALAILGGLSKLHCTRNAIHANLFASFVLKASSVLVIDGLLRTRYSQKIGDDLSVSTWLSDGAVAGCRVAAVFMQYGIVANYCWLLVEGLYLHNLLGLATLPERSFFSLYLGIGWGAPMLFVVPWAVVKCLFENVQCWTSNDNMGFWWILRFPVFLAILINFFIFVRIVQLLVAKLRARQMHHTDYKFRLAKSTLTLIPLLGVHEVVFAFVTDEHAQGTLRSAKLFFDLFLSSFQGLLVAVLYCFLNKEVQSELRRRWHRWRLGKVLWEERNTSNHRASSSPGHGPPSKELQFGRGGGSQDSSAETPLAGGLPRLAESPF

Structure (SMILES): CCCCCCCCCCCCCCCC(=O)NCCCC[C@H](NC(=O)[C@H](CC(=O)O)NC(=O)[C@H](CO)NC(=O)[C@@H](NC(=O)[C@H](Cc1ccccc1)NC(=O)[C@@H](NC(=O)CNC(=O)[C@H](CCC(N)=O)NC(=O)C(C)(C)NC(=O)[C@@H](N)Cc1c[nH]cn1)[C@@H](C)O)[C@@H](C)O)C(=O)N[C@@H](CO)C(=O)N[C@@H](CCCCN)C(=O)N[C@@H](Cc1ccc(O)cc1)C(=O)N[C@@H](CC(C)C)C(=O)N[C@@H](CC(=O)O)C(=O)NC(C)(C)C(=O)N[C@@H](CCCNC(=N)N)C(=O)N[C@@H](CCCNC(=N)N)C(=O)N[C@@H](C)C(=O)N[C@@H](CCC(N)=O)C(=O)N[C@@H](CC(=O)O)C(=O)N[C@@H](Cc1ccccc1)C(=O)N[C@H](C(=O)N[C@@H](CCC(N)=O)C(=O)N[C@@H](Cc1c[nH]c2ccccc12)C(=O)N[C@@H](CC(C)C)C(=O)N[C@@H](CCSC)C(=O)N[C@@H](CC(N)=O)C(=O)N[C@H](C(=O)N[C@@H](CCCCN)C(N)=O)[C@@H](C)O)C(C)C
pEC50 [1]: 9.50
pEC50 [2]: 9.12

Structure (SMILES): CCCCCCCCCCCCCCCC(=O)N[C@@H](Cc1c[nH]c2ccccc12)C(=O)NCCCC[C@H](NC(=O)[C@H](CC(=O)O)NC(=O)[C@H](CO)NC(=O)[C@@H](NC(=O)[C@H](Cc1ccccc1)NC(=O)[C@@H](NC(=O)CNC(=O)[C@H](CCC(N)=O)NC(=O)C(C)(C)NC(=O)[C@@H](N)Cc1c[nH]cn1)[C@@H](C)O)[C@@H](C)O)C(=O)N[C@@H](CO)C(=O)N[C@@H](CCCCN)C(=O)N[C@@H](Cc1ccc(O)cc1)C(=O)N[C@@H](CC(C)C)C(=O)N[C@@H](CC(=O)O)C(=O)NC(C)(C)C(=O)N[C@@H](CCCNC(=N)N)C(=O)N[C@@H](CCCNC(=N)N)C(=O)N[C@@H](C)C(=O)N[C@@H](CCC(N)=O)C(=O)N[C@@H](CC(=O)O)C(=O)N[C@@H](Cc1ccccc1)C(=O)N[C@H](C(=O)N[C@@H](CS)C(=O)N[C@@H](Cc1c[nH]c2ccccc12)C(=O)N[C@@H](CC(C)C)C(=O)N[C@@H](CCSC)C(=O)N[C@@H](CC(N)=O)C(=O)N[C@H](C(N)=O)[C@@H](C)O)C(C)C
pEC50 [3]: 9.60

Structure (SMILES): CCCCCCCCCCCCCCCC(=O)N[C@@H](Cc1c[nH]c2ccccc12)C(=O)NCCCC[C@H](NC(=O)[C@H](CC(=O)O)NC(=O)[C@H](CO)NC(=O)[C@@H](NC(=O)[C@H](Cc1ccccc1)NC(=O)[C@@H](NC(=O)CNC(=O)[C@H](CCC(N)=O)NC(=O)C(C)(C)NC(=O)[C@@H](N)Cc1c[nH]cn1)[C@@H](C)O)[C@@H](C)O)C(=O)N[C@@H](CO)C(=O)N[C@@H](CCCCN)C(=O)N[C@@H](Cc1ccc(O)cc1)C(=O)N[C@@H](CC(C)C)C(=O)N[C@@H](CC(=O)O)C(=O)NC(C)(C)C(=O)N[C@@H](CCCNC(=N)N)C(=O)N[C@@H](CCCNC(=N)N)C(=O)N[C@@H](C)C(=O)NC(C)(C)C(=O)N[C@@H](CC(=O)O)C(=O)N[C@@H](Cc1ccccc1)C(=O)N[C@H](C(=O)N[C@@H](CS)C(=O)N[C@@H](Cc1c[nH]c2ccccc12)C(=O)N[C@@H](CC(C)C)C(=O)N[C@@H](CCSC)C(=O)N[C@@H](CC(N)=O)C(=O)N[C@H](C(N)=O)[C@@H](C)O)C(C)C (H-H[Aib]QGTFTSDK([Trp-Palmitoyl])SKYLD[Aib]RRA[Aib]DFVCWLMNT-NH2; N-terminus assumed)
pEC50 [3]: 8.69

Structure (SMILES): CCCCCCCCCCCCCCCC(=O)NCCCC[C@H](NC(=O)[C@H](CC(=O)O)NC(=O)[C@H](CO)NC(=O)[C@@H](NC(=O)[C@H](Cc1ccccc1)NC(=O)[C@@H](NC(=O)CNC(=O)[C@H](CCC(N)=O)NC(=O)[C@H](CO)NC(=O)[C@@H](N)Cc1c[nH]cn1)[C@@H](C)O)[C@@H](C)O)C(=O)N[C@@H](CO)C(=O)N[C@@H](CCCCN)C(=O)N[C@@H](Cc1ccc(O)cc1)C(=O)N[C@@H](CC(C)C)C(=O)N[C@@H](CC(=O)O)C(=O)N[C@@H](CCC(=O)O)C(=O)N[C@@H](CCCNC(=N)N)C(=O)N[C@@H](CCCNC(=N)N)C(=O)N[C@@H](C)C(=O)N[C@@H](CCCCN)C(=O)N[C@@H](CC(=O)O)C(=O)N[C@@H](Cc1ccccc1)C(=O)N[C@H](C(=O)N[C@@H](CCC(N)=O)C(=O)N[C@@H](Cc1c[nH]c2ccccc12)C(=O)N[C@@H](CC(C)C)C(=O)N[C@@H](CCSC)C(=O)N[C@@H](CC(N)=O)C(=O)N[C@H](C(N)=O)[C@@H](C)O)C(C)C [E16 K20-glucagon-NH2 with K^10—C16]
pEC50 [5]: 9.40
pEC50 [6]: 9.63

Structure (SMILES): CCCCCCCCCCCCCCCC(=O)N[C@@H](Cc1c[nH]c2ccccc12)C(=O)NCCCC[C@H](NC(=O)[C@H](CC(=O)O)NC(=O)[C@H](CO)NC(=O)[C@@H](NC(=O)[C@H](Cc1ccccc1)NC(=O)[C@@H](NC(=O)CNC(=O)[C@H](CCC(N)=O)NC(=O)[C@H](CO)NC(=O)[C@@H](N)Cc1c[nH]cn1)[C@@H](C)O)[C@@H](C)O)C(=O)N[C@@H](CO)C(=O)N[C@@H](CCCCN)C(=O)N[C@@H](Cc1ccc(O)cc1)C(=O)N[C@@H](CC(C)C)C(=O)N[C@@H](CC(=O)O)C(=O)N[C@@H](CCC(=O)O)C(=O)N[C@@H](CCCNC(=N)N)C(=O)N[C@@H](CCCNC(=N)N)C(=O)N[C@@H](C)C(=O)N[C@@H](CCCCN)C(=O)N[C@@H](CC(=O)O)C(=O)N[C@@H](Cc1ccccc1)C(=O)N[C@H](C(=O)N[C@@H](CCC(N)=O)C(=O)N[C@@H](Cc1c[nH]c2ccccc12)C(=O)N[C@@H](CC(C)C)C(=O)N[C@@H](CCSC)C(=O)N[C@@H](CC(N)=O)C(=O)N[C@H](C(N)=O)[C@@H](C)O)C(C)C [E16 K20-glucagon-NH2 with K^10—W—C16]
pEC50 [5]: 9.85

Structure (SMILES): CCCCCCCCCCCCCCCCCC(=O)N[C@@H](Cc1c[nH]c2ccccc12)C(=O)NCCCC[C@H](NC(=O)[C@H](CC(=O)O)NC(=O)[C@H](CO)NC(=O)[C@@H](NC(=O)[C@H](Cc1ccccc1)NC(=O)[C@@H](NC(=O)CNC(=O)[C@H](CCC(N)=O)NC(=O)[C@H](CO)NC(=O)[C@@H](N)Cc1c[nH]cn1)[C@@H](C)O)[C@@H](C)O)C(=O)N[C@@H](CO)C(=O)N[C@@H](CCCCN)C(=O)N[C@@H](Cc1ccc(O)cc1)C(=O)N[C@@H](CC(C)C)C(=O)N[C@@H](CC(=O)O)C(=O)N[C@@H](CCC(=O)O)C(=O)N[C@@H](CCCNC(=N)N)C(=O)N[C@@H](CCCNC(=N)N)C(=O)N[C@@H](C)C(=O)N[C@@H](CCCCN)C(=O)N[C@@H](CC(=O)O)C(=O)N[C@@H](Cc1ccccc1)C(=O)N[C@H](C(=O)N[C@@H](CCC(N)=O)C(=O)N[C@@H](Cc1c[nH]c2ccccc12)C(=O)N[C@@H](CC(C)C)C(=O)N[C@@H](CCSC)C(=O)N[C@@H](CC(N)=O)C(=O)N[C@H](C(N)=O)[C@@H](C)O)C(C)C [E16 K20-glucagon-NH2 with K^10—W—C18]
pEC50 [5]: 10.30
pEC50 [6]: 10.36

Other lines, results leading:

pEC50 [4]: 10.36
Structure (SMILES): CCCCCCCCCCCCCC(=O)NCCCC[C@H](NC(=O)[C@H](CC(=O)O)NC(=O)[C@H](CO)NC(=O)[C@@H](NC(=O)[C@H](Cc1ccccc1)NC(=O)[C@@H](NC(=O)CNC(=O)[C@H](CCC(N)=O)NC(=O)C(C)(C)NC(=O)[C@@H](N)Cc1c[nH]cn1)[C@@H](C)O)[C@@H](C)O)C(=O)N[C@@H](CO)C(=O)N[C@@H](CCCCN)C(=O)N[C@@H](Cc1ccc(O)cc1)C(=O)N[C@@H](CC(C)C)C(=O)N[C@@H](CC(=O)O)C(=O)NC(C)(C)C(=O)N[C@@H](CCCNC(=N)N)C(=O)N[C@@H](CCCNC(=N)N)C(=O)N[C@@H](C)C(=O)N[C@@H](CCC(N)=O)C(=O)N[C@@H](CC(=O)O)C(=O)N[C@@H](Cc1ccccc1)C(=O)N[C@H](C(=O)N[C@@H](CCC(N)=O)C(=O)N[C@@H](Cc1c[nH]c2ccccc12)C(=O)N[C@@H](CC(C)C)C(=O)N[C@@H](CCSC)C(=O)N[C@@H](CC(N)=O)C(=O)N[C@H](C(N)=O)[C@@H](C)O)C(C)C [AIB2, AIB16, K10(C14) Gluc Amide]

pEC50 [1]: 10.64
pEC50 [2]: 10.28
pEC50 [4]: 10.70
Structure (SMILES): CCCCCCCCCCCCCCCC(=O)NCCCC[C@H](NC(=O)[C@H](CC(=O)O)NC(=O)[C@H](CO)NC(=O)[C@@H](NC(=O)[C@H](Cc1ccccc1)NC(=O)[C@@H](NC(=O)CNC(=O)[C@H](CCC(N)=O)NC(=O)C(C)(C)NC(=O)[C@@H](N)Cc1c[nH]cn1)[C@@H](C)O)[C@@H](C)O)C(=O)N[C@@H](CO)C(=O)N[C@@H](CCCCN)C(=O)N[C@@H](Cc1ccc(O)cc1)C(=O)N[C@@H](CC(C)C)C(=O)N[C@@H](CC(=O)O)C(=O)NC(C)(C)C(=O)N[C@@H](CCCNC(=N)N)C(=O)N[C@@H](CCCNC(=N)N)C(=O)N[C@@H](C)C(=O)N[C@@H](CCC(N)=O)C(=O)N[C@@H](CC(=O)O)C(=O)N[C@@H](Cc1ccccc1)C(=O)N[C@H](C(=O)N[C@@H](CCC(N)=O)C(=O)N[C@@H](Cc1c[nH]c2ccccc12)C(=O)N[C@@H](CC(C)C)C(=O)N[C@@H](CCSC)C(=O)N[C@@H](CC(N)=O)C(=O)N[C@H](C(N)=O)[C@@H](C)O)C(C)C [AIB2, AIB16, K10(C16) Gluc Amide]

pEC50 [4]: 10.80
Structure (SMILES): CCCCCCCCCCCCCCCCCC(=O)NCCCC[C@H](NC(=O)[C@H](CC(=O)O)NC(=O)[C@H](CO)NC(=O)[C@@H](NC(=O)[C@H](Cc1ccccc1)NC(=O)[C@@H](NC(=O)CNC(=O)[C@H](CCC(N)=O)NC(=O)C(C)(C)NC(=O)[C@@H](N)Cc1c[nH]cn1)[C@@H](C)O)[C@@H](C)O)C(=O)N[C@@H](CO)C(=O)N[C@@H](CCCCN)C(=O)N[C@@H](Cc1ccc(O)cc1)C(=O)N[C@@H](CC(C)C)C(=O)N[C@@H](CC(=O)O)C(=O)NC(C)(C)C(=O)N[C@@H](CCCNC(=N)N)C(=O)N[C@@H](CCCNC(=N)N)C(=O)N[C@@H](C)C(=O)N[C@@H](CCC(N)=O)C(=O)N[C@@H](CC(=O)O)C(=O)N[C@@H](Cc1ccccc1)C(=O)N[C@H](C(=O)N[C@@H](CCC(N)=O)C(=O)N[C@@H](Cc1c[nH]c2ccccc12)C(=O)N[C@@H](CC(C)C)C(=O)N[C@@H](CCSC)C(=O)N[C@@H](CC(N)=O)C(=O)N[C@H](C(N)=O)[C@@H](C)O)C(C)C [AIB2, AIB16, K10(C18) Gluc Amide]
